What was measured:
Format in all cases: cell-based
[1] = system: Staphylococcus aureus (ATCC #6538); experiment: quantitative test for bacterial growth on treated air filter media; conditions: for # of Bacteria Recovered / % Reduction / Log Reduction (S): air filter media saturated with solution and dried, 18 hours at 37 C
Protocol: There are various anti-microbial agents that are available for application to the air filter media 16. […] To determine the effectiveness of an antimicrobial agent with regard to bacteria, samples of air filter media 16 were treated with various solutions of antimicrobial agents and subjected to a quantitative test. In the quantitative test for bacterial growth, an air filter media sample was saturated with a solution of an antimicrobial agent and allowed to dry. The air filter media sample was then placed in a sealed container and a 0.2 mL inoculum of Staphylococcus aureus (ATCC #6538) was placed, in microdroplets, on the surface of the air filter media sample. A solution having a 0.05% concentration of polysorbate 80 was added to the inoculum as a wetting agent. The air filter media sample was then incubated for 18 hours at a temperature of 37 C°. After incubation, 20 mL of […] broth was added to the container, and the container was shaken. The bacteria in the resulting liquid were then quantified using a series of dilution plates.

[2] = system: Trichoderma virens fungus; experiment: antifungal test AATCC Test Method 30-2013 on treated air filter media
Protocol: (§1) Air filter media samples treated with the aforementioned antimicrobial solutions were then tested for antifungal properties using the common American Association of Textile Chemists and Colorists (AATCC) Test Method 30-2013. […] A larger growth-free zone indicates higher antifungal properties, and a higher surface inhibition indicates higher antifungal properties. The test was performed for both Aspergillus niger and Trichoderma virens species of fungus.

Aspergillus niger fungus = experiment: as above
Protocol: as §1

SMILES | effectiveness at inhibiting bacterial growth (in words) [1] | # of Bacteria Recovered [1] | % Reduction [1] [%] | Log Reduction (S) [1] | effectiveness at inhibiting fungal growth (in words) [2] | Growth-Free Zone in MM ([2]; treated filter media) [MM] | Surface Inhibition ([2]; treated filter media) | effectiveness at inhibiting fungal growth (in words) (Aspergillus niger fungus) | Growth-Free Zone in MM (Aspergillus niger fungus; treated filter media) [MM] | Surface Inhibition (Aspergillus niger fungus; treated filter media)
Cc1ccc(S(=O)(=O)C(I)I)cc1 [1% diiodomethyl-p-tolyl sulfone, diiodomethyl-p-tolyl sulfone] | most effective | <2.00 × 10^1 | >99.9 | >4.8 | limited in its effectiveness | 0 | 50 | did not inhibit any growth | 0 | 0
[Cl][Ag] [2% silver chloride, silver chloride] | – | 1.81 × 10^4 | 98.6 | 1.8 | – | – | – | – | – | –

— patent US9427691B2, “Antimicrobial air filter” (PTI Technologies, Inc., priority 2014, dated 2016)
